# Reference: paper PMC9436924, “A gene cluster in Ginkgo biloba encodes unique multifunctional cytochrome P450s that initiate ginkgolide biosynthesis” (Nature Communications, 2022)
# Legend:
# GbLPS = target: T1, GbLPS (Ginkgo biloba, UniProt Q947C4); assay: expression in tobacco leaves, GC-MS of products; format: cell-based; settings: substrate made in situ with CfDXS and CfGGPPS
# T1 construct: gene LPS; transiently expressed in Nicotiana benthamiana leaves, plastidial; (in yeast a truncated, codon-optimised MBP fusion was used)
# T1 sequence (Q947C4 60-873): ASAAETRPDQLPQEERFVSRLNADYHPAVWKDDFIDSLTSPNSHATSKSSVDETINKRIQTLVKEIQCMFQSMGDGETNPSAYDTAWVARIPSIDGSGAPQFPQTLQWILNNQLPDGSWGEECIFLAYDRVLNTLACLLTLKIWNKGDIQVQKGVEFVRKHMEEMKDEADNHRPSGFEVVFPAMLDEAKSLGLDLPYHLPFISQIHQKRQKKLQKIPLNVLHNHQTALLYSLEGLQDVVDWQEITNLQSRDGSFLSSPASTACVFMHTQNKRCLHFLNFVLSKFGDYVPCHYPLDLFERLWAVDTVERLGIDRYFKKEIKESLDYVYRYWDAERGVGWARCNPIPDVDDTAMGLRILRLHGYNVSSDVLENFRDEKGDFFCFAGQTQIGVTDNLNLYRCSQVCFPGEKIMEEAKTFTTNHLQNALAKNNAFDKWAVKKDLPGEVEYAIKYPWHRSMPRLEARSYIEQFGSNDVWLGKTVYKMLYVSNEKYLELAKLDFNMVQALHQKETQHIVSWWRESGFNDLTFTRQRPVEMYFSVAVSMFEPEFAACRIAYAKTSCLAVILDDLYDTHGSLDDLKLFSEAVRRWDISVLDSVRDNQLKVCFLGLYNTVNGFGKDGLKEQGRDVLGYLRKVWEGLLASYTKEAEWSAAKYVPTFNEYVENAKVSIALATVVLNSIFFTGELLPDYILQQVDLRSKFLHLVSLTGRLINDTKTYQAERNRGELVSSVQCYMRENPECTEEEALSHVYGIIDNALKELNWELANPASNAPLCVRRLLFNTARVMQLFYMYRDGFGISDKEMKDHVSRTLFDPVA
# GbCYP720B31 = target: T2, GbCYP720B31 (Ginkgo biloba, UniProt Z9PDJ7KIF4); assay: pathway co-expression in tobacco and yeast, LC-HRMS, NMR of product glucosides; format: cell-based; settings: proposed substrate made in situ by upstream enzymes, free form not detected
# T2 construct: G. biloba cDNA, gene on chromosome 4; expressed in Nicotiana benthamiana and Saccharomyces cerevisiae; GenBank numbers ON759313-ON759329 printed only as a collective set
# T2 sequence (Z9PDJ7KIF4 1-483): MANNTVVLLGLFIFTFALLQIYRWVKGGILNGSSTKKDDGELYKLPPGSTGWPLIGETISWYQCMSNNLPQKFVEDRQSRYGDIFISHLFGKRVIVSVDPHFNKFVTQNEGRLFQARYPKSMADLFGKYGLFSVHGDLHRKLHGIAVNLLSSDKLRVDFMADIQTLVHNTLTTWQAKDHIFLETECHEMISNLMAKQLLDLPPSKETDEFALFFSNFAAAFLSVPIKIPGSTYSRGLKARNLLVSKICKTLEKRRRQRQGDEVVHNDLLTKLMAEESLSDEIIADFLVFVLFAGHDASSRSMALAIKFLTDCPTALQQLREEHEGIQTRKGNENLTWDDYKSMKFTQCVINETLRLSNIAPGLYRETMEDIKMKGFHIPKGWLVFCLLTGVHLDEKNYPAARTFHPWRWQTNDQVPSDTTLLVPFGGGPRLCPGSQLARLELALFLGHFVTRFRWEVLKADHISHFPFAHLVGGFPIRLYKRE
compound,measurement,setting,value
CC(C)=CCC/C(C)=C/CC/C(C)=C/CC/C(C)=C/COP(=O)(O)OP(=O)(O)O [geranylgeranyl pyrophosphate],"expression in tobacco leaves, GC-MS of products",GbLPS,levopimaradiene synthase (GbLPS) converts GGPP to diterpene hydrocarbon levopimaradiene
CC(=CC(=O)O)C(CCc1cc(O)c(C(C)C)cc1O)C(C)(C)C (centres unmarked) [ginkgosinoic acid C],"pathway co-expression in tobacco and yeast, LC-HRMS, NMR of product glucosides",GbCYP720B31,we propose that GbCYP720B31 hydroxylates ginkgosinoic acid C at position C20
